According to ChEMBL document CHEMBL5512645, “A novel antimicrobial peptide with broad-spectrum and exceptional stability derived from the natural peptide Brevicidine” (Eur J Med Chem, 2024):
Converted amounts (≈) assume the structure as drawn. The source made the active and inactive calls. No cut-off for these calls is given here. Bridge positions count the residues as written; N and C are the ends. Square brackets hold non-standard residues; d marks the D form. Peptide text beside a SMILES is read from it. * marks the point of attachment. ξ: configuration not given here. Hexanoyl(4ξ-Me) = CCC(C)CCC(=O)*; dOrn = NCCC[C@@H](N)C(=O)O; Orn = NCCC[C@H](N)C(=O)O

What was measured:
Staphylococcus aureus [1] = assay: Antibacterial activity against Staphylococcus aureus ATCC 25923 pretreated with 2.5% mouse serum followed by compound addition and measured after 1 hr by broth microdilution method (reference value: 8 microM); assay type: functional
Staphylococcus aureus [2] = assay: Antibacterial activity against Staphylococcus aureus ATCC 25923 pretreated with 10% mouse serum followed by compound addition and measured after 1 hr by broth microdilution method (reference value: 8 microM); assay type: functional
Staphylococcus aureus [3] = assay: Antibacterial activity against Staphylococcus aureus ATCC 25923 pretreated with 20% mouse serum followed by compound addition and measured after 1 hr by broth microdilution method (reference value: 8 microM); assay type: functional
Staphylococcus aureus [4] = assay: Antibacterial activity against Staphylococcus aureus ATCC 25923 pretreated with 10% mouse serum followed by compound addition and measured after 6 hrs by broth microdilution method (reference value: 8 microM); assay type: functional
Staphylococcus aureus [5] = assay: Antibacterial activity against Staphylococcus aureus ATCC 25923 pretreated with 20% mouse serum followed by compound addition and measured after 6 hrs by broth microdilution method (reference value: 8 microM); assay type: functional
Staphylococcus aureus [6] = assay: Antibacterial activity against Staphylococcus aureus ATCC 25923 pretreated with Na-cl followed by compound addition and measured after 2 hrs by broth microdilution method (reference value: 8 microM); assay type: functional
Staphylococcus aureus [7] = assay: Antibacterial activity against Staphylococcus aureus ATCC 25923 pretreated with FeCl3 followed by compound addition and measured after 2 hrs by broth microdilution method (reference value: 8 microM); assay type: functional
Pseudomonas aeruginosa [8] = assay: Bactericidal activity against Pseudomonas aeruginosa ATCC 27853 assessed as assessed as eradication of bacterial cells at 2 to 4 times MIC measured after 10 mins by time killing analysis; assay type: functional, organism-based
Pseudomonas aeruginosa [9] = assay: Induction of morphological changes in Pseudomonas aeruginosa ATCC 27853 assessed as aggregation at 2 times MIC measured after 0.5 hrs by SEM based analysis; assay type: functional, organism-based
[10] = Toxicity in male BALB/c mouse assessed as survival rate at 29.2 mg/kg, ip measured after 7 days relative to control; assay type: organism-based; conditions: in vivo, time 7 day
[11] = Toxicity in male BALB/c mouse assessed as survival rate at 42.6 mg/kg, ip measured after 6 days relative to control; assay type: organism-based; conditions: in vivo, time 6 day
[12] = Toxicity in male BALB/c mouse assessed as survival rate at 90.9 mg/kg, ip measured after 6 days relative to control; assay type: organism-based; conditions: in vivo, time 6 day
[13] = Toxicity in male BALB/c mouse assessed as survival rate at 132.7 mg/kg, ip measured after 6 days relative to control; assay type: organism-based; conditions: in vivo, time 6 day
[14] = Toxicity in male BALB/c mouse assessed as lethal dose administered as ip measured after 7 days; assay type: organism-based; conditions: male, BALB/c, in vivo, time 7 day
[15] = Toxicity in male BALB/c mouse assessed as edema in kidney at 46.88 mg/kg, ip administered as single dose by H and E staining based analysis; assay type: organism-based; conditions: in vivo
Staphylococcus aureus [16] = assay: Antibacterial activity against Staphylococcus aureus ATCC 25923 assessed as fold increase in MIC pretreated with 2.5 to 20% mouse serum followed by compound addition and measured after 1 to 6 hrs by broth microdilution method; assay type: functional; conditions: time 1-6 hrs
Staphylococcus aureus [17] = assay: Antibacterial activity against Staphylococcus aureus ATCC 25923 assessed as fold increase in MIC pretreated with KCl followed by compound addition and measured after 2 hrs by broth microdilution method; assay type: functional
Staphylococcus aureus [18] = assay: Antibacterial activity against Staphylococcus aureus ATCC 25923 pretreated with 10% mouse serum followed by compound addition and measured after 1 hr by broth microdilution method (reference value: 64 microM); assay type: functional
Staphylococcus aureus [19] = assay: Antibacterial activity against Staphylococcus aureus ATCC 25923 pretreated with 20% mouse serum followed by compound addition and measured after 1 hr by broth microdilution method (reference value: 64 microM); assay type: functional
Staphylococcus aureus [20] = assay: Antibacterial activity against Staphylococcus aureus ATCC 25923 pretreated with 2.5% mouse serum followed by compound addition and measured after 6 hrs by broth microdilution method (reference value: 64 microM); assay type: functional
Staphylococcus aureus [21] = assay: Antibacterial activity against Staphylococcus aureus ATCC 25923 pretreated with 5% mouse serum followed by compound addition and measured after 6 hrs by broth microdilution method (reference value: 64 microM); assay type: functional
Staphylococcus aureus [22] = assay: Antibacterial activity against Staphylococcus aureus ATCC 25923 pretreated with 10% mouse serum followed by compound addition and measured after 6 hrs by broth microdilution method (reference value: 64 microM); assay type: functional
Staphylococcus aureus [23] = assay: Bactericidal activity against Staphylococcus aureus ATCC 25923 assessed as assessed as eradication of bacterial cells at 1/2 to 4 times MIC measured after 0.5 hr by time killing analysis; assay type: functional, organism-based
Cell membrane [24] = assay: Induction of outer membrane permeabilization in Pseudomonas aeruginosa ATCC 27853 assessed increase in fluorescence intensity at 1/2 MIC measured upto 12 mins by fluorescence based NPN uptake assay; assay type: cell membranes
Staphylococcus aureus [25] = assay: Antibacterial activity against Staphylococcus aureus ATCC 25923 assessed as fold increase in MIC pretreated with Na-cl followed by compound addition and measured after 2 hrs by broth microdilution method; assay type: functional
Staphylococcus aureus [26] = assay: Antibacterial activity against Staphylococcus aureus ATCC 25923 pretreated with 10% mouse serum followed by compound addition and measured after 1 hr by broth microdilution method (reference value: 16 microM); assay type: functional, organism-based
Staphylococcus aureus [27] = assay: Antibacterial activity against Staphylococcus aureus ATCC 25923 pretreated with 2.5% mouse serum followed by compound addition and measured after 6 hrs by broth microdilution method (reference value: 16 microM); assay type: functional, organism-based
Staphylococcus aureus [28] = assay: Antibacterial activity against Staphylococcus aureus ATCC 25923 pretreated with 20% mouse serum followed by compound addition and measured after 6 hrs by broth microdilution method (reference value: 16 microM); assay type: functional, organism-based
Staphylococcus aureus [29] = assay: Antibacterial activity against Staphylococcus aureus ATCC 25923 pretreated with Kcl followed by compound addition and measured after 2 hrs by broth microdilution method (reference value: 16 microM); assay type: functional, organism-based
Staphylococcus aureus [30] = assay: Antibacterial activity against Staphylococcus aureus ATCC 25923 pretreated with Mgcl2 followed by compound addition and measured after 2 hrs by broth microdilution method (reference value: 16 microM); assay type: functional, organism-based
Cell membrane [31] = assay: Induction of outer membrane permeabilization in Pseudomonas aeruginosa ATCC 27853 assessed increase in fluorescence intensity at 1/2 to 4 times MIC by fluorescence based NPN uptake assay; assay type: cell membranes; conditions: time <= 12.0 min, TDE = time-dependent effect

In the case of CCCCCCCCCC(=O)N[C@H](CCCN)C(=O)N[C@H](Cc1ccc(O)cc1)C(=O)N[C@H](Cc1c[nH]c2ccccc12)C(=O)N[C@H](CCCN)C(=O)N[C@@H](CCCN)C(=O)NCC(=O)N[C@H](CCCN)C(=O)N[C@@H](Cc1c[nH]c2ccccc12)C(=O)N[C@H](C(=O)N[C@H](C(=O)NCC(=O)N[C@@H](CO)C(=O)O)[C@@H](C)CC)[C@@H](C)O, the MIC (Staphylococcus aureus [1]) is reported as 16 µM (≈ 25.3 µg/mL), the MIC (Staphylococcus aureus [2]) is reported as 32 µM (≈ 50.6 µg/mL) and the MIC (Staphylococcus aureus [3]) is reported as > 128 µM. The MIC (Staphylococcus aureus [4]) was 32 µM (≈ 50.6 µg/mL), the MIC (Staphylococcus aureus [5]) was > 128 µM and the MIC (Staphylococcus aureus [6]) was 16 µM (≈ 25.3 µg/mL). For the same compound, the MIC (Staphylococcus aureus [7]) was 8 µM (≈ 12.6 µg/mL), the Activity (Pseudomonas aeruginosa [8]) was “Active” and the Activity (Pseudomonas aeruginosa [9]) was “Active”. It also gave a survival at 168 h [10] of 100%, a survival at 144 h [11] of 50% and a survival at 144 h [12] of 12.5%. For the same compound, the survival at 144 h [13] was 0%, the LD50 at 168 h [14] was 46.9 mg/kg and the Activity [15] was “Toxic”. The “fold change (FC)” value (Staphylococcus aureus [16]) was 4 and the “fold change (FC)” value (Staphylococcus aureus [17]) was 2.

With CCC(C)CCC(=O)N[C@H](CC(N)=O)C(=O)N[C@H](Cc1ccc(O)cc1)C(=O)N[C@H](Cc1c[nH]c2ccccc12)C(=O)N[C@H](CCCN)C(=O)N[C@@H](CCCN)C(=O)NCC(=O)N[C@H](CCCN)C(=O)N[C@@H](Cc1c[nH]c2ccccc12)C(=O)N[C@@H]1C(=O)N[C@@H]([C@@H](C)CC)C(=O)NCC(=O)N[C@@H](CO)C(=O)O[C@@H]1C (stereo partly specified) ({Hexanoyl(4ξ-Me)}-[dN][dY][dW][dOrn][Orn]G[dOrn]WTIGS; ester 9-C) the MIC (Staphylococcus aureus [18]) was 64 µM (≈ 97.3 µg/mL), the MIC (Staphylococcus aureus [19]) was 128 µM (≈ 195 µg/mL) and the MIC (Staphylococcus aureus [20]) was 128 µM (≈ 195 µg/mL). For the same compound, the MIC (Staphylococcus aureus [21]) was 128 µM (≈ 195 µg/mL), the MIC (Staphylococcus aureus [22]) was 128 µM (≈ 195 µg/mL) and the Activity (Staphylococcus aureus [23]) was “Active”. The Activity (Cell membrane [24]) was “inactive” and the “fold change (FC)” value (Staphylococcus aureus [25]) was 2.

In the case of POLYMYXIN B, the MIC (Staphylococcus aureus [26]) is reported as 16 µM, the MIC (Staphylococcus aureus [27]) is reported as 16 µM and the MIC (Staphylococcus aureus [28]) is reported as 16 µM. The MIC (Staphylococcus aureus [29]) was 8 µM, the MIC (Staphylococcus aureus [30]) was 8 µM and the Activity (Cell membrane [31]) was “Tde”.
